Laboratory results as given in PubChem BioAssay (NCI).
“And” between values parts separate entries of the source, which are not always exact repeats. Equal entries are not always repeated.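 Following 48 hours of exposure in 96-well plates, responses at five concentrations were used to interpolate endpoints linearly. At the GI50, growth is halved. TGI marks complete inhibition of growth.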

Experiments:
Assay in all cases: NCI tumour cell line growth inhibition, 48 h
SNB-78 CNS = system: SNB-78 CNS
M19-MEL melanoma = system: M19-MEL melanoma
KM20L2 colon = system: KM20L2 colon
XF 498 CNS = system: XF 498 CNS
LXFL 529 NSCLC = system: LXFL 529 NSCLC
HOP-18 NSCLC = system: HOP-18 NSCLC
DLD-1 colon = system: DLD-1 colon
DMS 273 small cell lung = system: DMS 273 small cell lung
RXF-631 renal = system: RXF-631 renal
SN12K1 renal = system: SN12K1 renal
P388 leukemia = system: P388 leukemia
P388/ADR leukemia = system: P388/ADR leukemia

| Compound | TGI (SNB-78 CNS) | TGI (M19-MEL melanoma) [µM] | TGI (KM20L2 colon) | TGI (XF 498 CNS) [µM] | TGI (LXFL 529 NSCLC) [µM] | TGI (HOP-18 NSCLC) | TGI (DLD-1 colon) [µM] | TGI (DMS 273 small cell lung) [µM] | TGI (RXF-631 renal) [µM] | GI50 (SNB-78 CNS) [µM] | TGI (SN12K1 renal) [µM] | GI50 (HOP-18 NSCLC) [µM] | TGI (P388 leukemia) [µM] | TGI (P388/ADR leukemia) [µM] | GI50 (M19-MEL melanoma) [µM] | GI50 (KM20L2 colon) [µM] | GI50 (XF 498 CNS) [µM] | GI50 (DMS 273 small cell lung) [µM] | GI50 (DLD-1 colon) [µM] |
| --- | --- | --- | --- | --- | --- | --- | --- | --- | --- | --- | --- | --- | --- | --- | --- | --- | --- | --- | --- |
| COC(=O)C1=NC(=S)NC(c2ccccc2)C1c1nc2ccccc2o1 (stereo not drawn) | > 50 µM | > 50 | > 50 µM | > 50 | > 50 | > 50 µM | > 50 | – | – | – | – | – | – | – | – | – | – | – | – |
| CN(C)CCCN1c2ccccc2Sc2ccc(C(F)(F)F)cc21 | 33.9 µM | 32.3 | 23.7 µM | – | > 100 | – | 31.9 | 29.4 | – | – | – | – | – | – | – | – | – | – | – |
| O=C1CCC(c2ccccc2)=NN1c1nc2ccccc2s1 | > 100 µM | > 100 | – | 86.7 | > 100 | > 100 µM | > 100 | > 100 | – | – | – | – | – | – | – | – | – | – | – |
| Cc1cc(NCCCCCCCNc2cc(C)nc3cc(N)ccc23)c2ccc(N)cc2n1 | > 100 µM | > 100 | > 100 µM | 66.2 | > 100 | – | > 100 | – | – | – | – | – | – | – | – | – | – | – | – |
| CC(C)c1ccc(O)c(Cc2cc(C(C)C)cc(Cc3cc(C(C)C)ccc3O)c2O)c1 | 4.54 µM | 2.99 | 5.55 µM | 2.73 | 2.81 | – | 4.15 | – | – | – | – | – | – | – | – | – | – | – | – |
| COC(=O)Cc1cc(=O)n2c3ccccc3n(C)c2c1C#N | > 100 µM | > 100 | > 100 µM | > 100 | – | – | > 100 | > 100 | – | – | – | – | – | – | – | – | – | – | – |
| CC(=O)CCC1(c2ccccc2)OC(=O)C(C#N)=C1c1ccccc1 (stereo not drawn) | > 100 µM | > 100 | > 100 µM | > 100 | > 100 | – | > 100 | > 100 | > 100 | – | – | – | – | – | – | – | – | – | – |
| COC(=O)[C@@]12OC[C@]34[C@H]([C@@H](O)[C@@H]1O)[C@@]1(C)CC(=O)C(O)=C(C)[C@@H]1C[C@H]3OC(=O)[C@H](OC(=O)/C=C(\C)C(C)C)[C@@H]24 | 0.00899 µM and 0.0427 µM and 0.0707 µM | – | – | 0.0212 | – | 0.016 µM and 0.0848 µM | – | 0.000177 | – | 0.00089 | 0.0541 | 0.00161 | 0.109 | 0.692 | – | – | – | – | – |
| COC(=O)CC1(O)C(=O)OCc2c1cc1n(c2=O)Cc2c-1nc1ccccc1c2OC (stereo not drawn) | > 100 µM | > 100 | > 100 µM | 40 | > 100 | > 100 µM | > 100 | 3.35 | > 100 | – | – | – | – | – | – | – | – | – | – |
| Cc1ccc(C)c2c1C1CCCCC3(OCCCO3)C21O (stereo not drawn) | > 100 µM | > 100 | > 100 µM | – | > 100 | > 100 µM | > 100 | > 100 | – | – | – | – | – | – | – | – | – | – | – |
| O=c1cc(-c2ccccc2)oc2ccc(Cl)cc12 | > 100 µM | > 100 | > 100 µM | > 90.5 | > 100 | > 100 µM | > 100 | > 100 | – | – | – | – | – | – | – | – | – | – | – |
| O=C(N/C(=C\c1ccc([N+](=O)[O-])cc1)c1nc2ccccc2s1)c1ccccc1 | > 100 µM | 53.9 | > 100 µM | > 100 | 42.9 | 61.9 µM | 58.7 | > 100 | – | – | – | – | – | – | – | – | – | – | – |
| C/C=C/C=C/c1cc2cc3c(c(O)c2c(=O)[nH]1)C1(CC3)C(O)=c2c(=O)c3c(=O)cc(OC)c(=O)c=3c(=O)c2=C1O (stereo not drawn) | > 56.7 µM | 13 | 10.9 µM | – | 4.56 | 7.47 µM | 17.9 | 7.82 | > 100 | – | – | – | – | – | – | – | – | – | – |
| O=C1/C(=C/c2ccc(Cl)cc2)CCC1CNc1ccc(Cl)cc1 (stereo not drawn) | > 100 µM | > 50.4 | 12.6 µM | 29.5 | 10.5 | > 74.5 µM | 10.7 | > 39.9 | – | – | – | – | – | – | – | – | – | – | – |
| N#C/C(=C\c1ccc(O)cc1)C(N)=O | > 100 µM | > 100 | > 100 µM | > 100 | > 100 | – | > 100 | > 100 | > 100 | – | > 100 | – | > 100 | > 100 | – | – | – | – | – |
| OC12CCC3(OC4CCCCO4)c4ccccc4C3C1c1ccccc12 (stereo not drawn) | > 100 µM | > 100 | > 100 µM | > 100 | > 100 | > 100 µM | – | > 100 | – | – | – | – | – | – | – | – | – | – | – |
| C=CCNC(=S)NNC(=O)c1c(C)nc2sccn12 | – | > 100 | > 100 µM | > 100 | > 100 | > 100 µM | > 100 | > 100 | > 100 | – | – | – | – | – | – | – | – | – | – |
| CCCC1C[C@H]2CCCCN2[C@H]2CCCN12 (stereo partly drawn) | > 100 µM | – | > 100 µM | > 100 | > 100 | > 100 µM | > 83.6 | > 100 | > 100 | – | – | – | – | – | – | – | – | – | – |
| O=P(CN1CCOCC1)(c1ccccc1)c1ccccc1 | > 100 µM | > 100 | – | > 100 | > 100 | – | – | > 100 | > 100 | – | – | – | – | – | – | – | – | – | – |
| CCOc1ccc(NC(=O)CC2SC(=Nc3ccc(C)cc3)NC2=O)cc1 (stereo not drawn) | > 100 µM | > 100 | > 100 µM | > 100 | > 100 | – | > 100 | > 100 | > 100 | – | – | – | – | – | – | – | – | – | – |
| COc1ccc(/C=C/C(=O)c2c(-c3ccccc3)nn(C)c(=O)c2N2CC2C)cc1 (stereo not drawn) | 63.1 µM | > 100 | 80 µM | – | 93.2 | > 100 µM | > 100 | 68.5 | – | – | – | – | – | – | – | – | – | – | – |
| Cc1cc(Cl)ccc1N=C1NC(=O)C(CC(=O)Nc2cccc(Cl)c2)S1 (stereo not drawn) | > 100 µM | > 100 | > 100 µM | > 100 | > 100 | > 100 µM | > 100 | > 100 | – | – | – | – | – | – | – | – | – | – | – |
| FC(F)(F)c1ccccc1C1SCc2nc3ccccc3n21 (stereo not drawn) | > 100 µM | > 100 | – | – | > 100 | > 100 µM | > 100 | > 100 | – | – | – | – | – | – | – | – | – | – | – |
| CC1[C@@]2(CCC(C)(C)O2)O[C@@H]2C=C3C4CCC5Cc6nc7c(nc6C[C@@]5(C)C4C[C@H](O)[C@@]3(C)[C@]12O)CC1CCC2C3=C[C@H]4O[C@@]5(O[C@@](C)(CO)C[C@@H]5O)C(C)[C@@]4(O)[C@]3(C)[C@@H](O)CC2[C@]1(C)C7 (stereo partly drawn) | 0.464 µM and 0.312 µM | 0.791 | 0.478 µM and 0.089 µM | – | 0.0824 | – | 1.11 | – | 0.213 | 0.0015 | 0.395 | – | 0.734 | 1.16 | 0.336 | 0.00289 | 0.00488 | < 0.000365 | 0.0805 |
| COc1ccc(/C=C/C(=N\NC(=O)c2ccccc2)c2sc(Nc3ccc([N+](=O)[O-])cc3)nc2C)cc1OC | 61.9 µM | 70.6 | 97.6 µM | 29.5 | 24.3 | 85 µM | 28.8 | 54.6 | – | – | – | – | – | – | – | – | – | – | – |
| COc1cc2c(oc(=O)c3c4occc4cc(OC)c23)c2cccc(O)c12 | > 100 µM | > 100 | > 100 µM | > 100 | > 100 | > 100 µM | > 100 | > 100 | – | – | – | – | – | – | – | – | – | – | – |
